In EP0188887A1, “Tertiary amine compounds” (IMPERIAL CHEMICAL INDUSTRIES PLC, priority 1985, dated 1986):

Legend:
Assay type in all cases: in vivo
[1] = system: PUCCINIA RECONDITA (WHEAT); assay: Foliar fungal disease test on plants (foliar spray plus root drench), Puccinia recondita on wheat; details: 100 ppm active ingredient sprayed on foliage, root drench approximately 40 ppm a.i./dry soil; applied one or two days before inoculation
Protocol: (§1) The compounds were tested against a variety of foliar fungal diseases of plants. The technique employed was as follows. The plants were grown in John Innes Potting Compost (No 1 or 2) in 4 cm diameter minipots. The test compounds were formulated either by bead milling with aqueous Dispersol T or as a solution in acetone or acetone/ethanol which was diluted to the required concentration immediately before use. For the foliage diseases, the formulations (100 ppm active ingredient) were sprayed on to the foliage and applied to the roots of the plants in the soil. The sprays were applied to maximum retention and the root drenches to a final concentration equivalent to approximately 40 ppm a.i./dry soil. Tween 20, to give a final concentration of 0.05%, was added when the sprays were applied to cereals. For most of the tests the compound was applied to the soil (roots) and to the foliage (by spraying) one or two days before the plant was inoculated with the disease. An exception was the test on Erysiphe graminis in which the plants were inoculated 24 hours before treatment. Foliar pathogens were applied by spray as spore suspensions onto the leaves of test plants. After inoculation, the plants were put into an appropriate environment to allow infection to proceed and then incubated until the disease was ready for assessment. The period between inoculation and assessment varied from four to fourteen days according to the disease and environment. The disease control was recorded by the following grading:- • 4 = no disease • 3 = trace - 5% of disease on untreated plants • 2 = 6-25% of disease on untreated plants • 1 = 26-59% of disease on untreated plants • 0 = 60-100% of disease on untreated plants

[2] = system: ERYSIPHE GRAMINIS (BARLEY); assay: Foliar fungal disease test on plants (foliar spray plus root drench), Erysiphe graminis on barley; details: 100 ppm active ingredient sprayed on foliage, root drench approximately 40 ppm a.i./dry soil; plants inoculated 24 hours before treatment
Protocol: as §1

[3] = system: VENTURIA INAEQUALIS (APPLE); assay: Foliar fungal disease test on plants (foliar spray plus root drench), Venturia inaequalis on apple; details: 100 ppm active ingredient sprayed on foliage, root drench approximately 40 ppm a.i./dry soil; applied one or two days before inoculation
Protocol: as §1

[4] = system: CERCOSPORA ARACHIDICOLA (PEANUT); assay: Foliar fungal disease test on plants (foliar spray plus root drench), Cercospora arachidicola on peanut; details: 100 ppm active ingredient sprayed on foliage, root drench approximately 40 ppm a.i./dry soil; applied one or two days before inoculation
Protocol: as §1

Row | Structure (SMILES) | disease control grading, PUCCINIA RECONDITA (WHEAT) [1] | disease control grading, ERYSIPHE GRAMINIS (BARLEY) [2] | disease control grading, VENTURIA INAEQUALIS (APPLE) [3] | disease control grading, CERCOSPORA ARACHIDICOLA (PEANUT) [4]
1 | C[C@@H]1CN(C[C@@H]2C[C@H]2c2ccc(C(C)(C)C)cc2)C[C@H](C)O1 (relative stereo) [Compound 4, 4-[2-(p-t-butylphenyl)-trans-cyclopropylmethyl]-2,6-cis-dimethylmorpholine] | 3 (3 = trace - 5% of disease on untreated plants) | 4 (4 = no disease) | 3 (3 = trace - 5% of disease on untreated plants) | 0 (0 = 60-100% of disease on untreated plants)
2 | C[C@@H]1CN(C[C@@H]2C[C@@]2(C)c2ccc(C(C)(C)C)cc2)C[C@H](C)O1 (relative stereo) [Compound 15] | 3 (3 = trace - 5% of disease on untreated plants) | 4 (4 = no disease) | 3 (3 = trace - 5% of disease on untreated plants) | 
3 | CC(C)(C)c1ccc(C2CC2CC2CCNCC2)cc1 (stereo not drawn) [Compound 1, 4-[2-(p-t-butylphenyl)-cyclopropylmethyl]-piperidine] | 4 (4 = no disease) | 4 (4 = no disease) | 0 (0 = 60-100% of disease on untreated plants) | 1 (1 = 26-59% of disease on untreated plants)
4 | CC(C)(C)c1ccc(C2C(CN3CCOCC3)C2(C)C)cc1 (stereo not drawn) [Compound 8, 4-[2-(p-t-butylphenyl)-3,3-dimethylcyclopropylmethyl]-morpholine] | 0 (0 = 60-100% of disease on untreated plants) | 4 (4 = no disease) | 3 (3 = trace - 5% of disease on untreated plants) | 3 (3 = trace - 5% of disease on untreated plants)
